Results reported in paper PMC10299128, “The Parallel Structure–Activity Relationship Screening of Three Compounds Identifies the Common Agonist Pharmacophore of Pyrrolidine Bis-Cyclic Guanidine Melanocortin-3 Receptor (MC3R) Small-Molecule Ligands” (International Journal of Molecular Sciences, 2023).

Assays:
mMC4R [1] = biological target: T1, mMC4R (Mus musculus, UniProt P56450); assay: AlphaScreen cAMP agonist assay, HEK293 cells stably expressing mMC4R; conditions: for mMC4R percent maximal stimulatory response (compared to NDP-MSH): at 1 mM, not enough stimulation to determine EC50; for mMC4R partial agonist efficacy bin: sigmoidal curve, efficacy <90% of NDP-MSH
T1 sequence (P56450 whole entry): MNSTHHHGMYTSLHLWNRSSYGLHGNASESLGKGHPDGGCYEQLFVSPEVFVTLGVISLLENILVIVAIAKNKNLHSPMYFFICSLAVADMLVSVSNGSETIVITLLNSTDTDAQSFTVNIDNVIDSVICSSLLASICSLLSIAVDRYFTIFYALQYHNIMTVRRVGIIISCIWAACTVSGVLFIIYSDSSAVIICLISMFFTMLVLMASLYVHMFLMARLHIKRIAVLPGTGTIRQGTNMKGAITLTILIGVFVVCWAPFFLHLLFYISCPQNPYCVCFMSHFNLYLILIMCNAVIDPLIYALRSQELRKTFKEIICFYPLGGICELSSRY

mMC3R = mMC3R (Mus musculus, UniProt P33033); assay: AlphaScreen cAMP agonist assay, HEK293 cells stably expressing mMC3R; conditions: for mMC3R percent maximal stimulatory response (compared to NDP-MSH): at 1 mM, not enough stimulation to determine EC50; for mMC3R partial agonist efficacy bin: sigmoidal curve, efficacy <90% of NDP-MSH
Sequence of mMC3R (P33033 whole entry): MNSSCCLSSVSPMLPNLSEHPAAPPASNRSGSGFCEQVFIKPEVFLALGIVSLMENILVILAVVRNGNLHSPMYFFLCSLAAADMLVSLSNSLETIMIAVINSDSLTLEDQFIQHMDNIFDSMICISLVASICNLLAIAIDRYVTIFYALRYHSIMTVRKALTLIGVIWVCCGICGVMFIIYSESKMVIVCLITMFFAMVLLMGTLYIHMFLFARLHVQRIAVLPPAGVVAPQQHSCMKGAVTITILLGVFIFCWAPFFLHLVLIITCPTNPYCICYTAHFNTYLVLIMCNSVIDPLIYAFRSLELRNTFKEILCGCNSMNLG

mMC1R = mMC1R (Mus musculus, UniProt Q01727); assay: AlphaScreen cAMP agonist assay, HEK293 cells stably expressing mMC1R; conditions: for mMC1R partial agonist efficacy bin: sigmoidal curve, efficacy <90% of NDP-MSH; for mMC1R percent maximal stimulatory response (compared to NDP-MSH): at 1 mM, not enough stimulation to determine EC50
Sequence of mMC1R (Q01727 whole entry): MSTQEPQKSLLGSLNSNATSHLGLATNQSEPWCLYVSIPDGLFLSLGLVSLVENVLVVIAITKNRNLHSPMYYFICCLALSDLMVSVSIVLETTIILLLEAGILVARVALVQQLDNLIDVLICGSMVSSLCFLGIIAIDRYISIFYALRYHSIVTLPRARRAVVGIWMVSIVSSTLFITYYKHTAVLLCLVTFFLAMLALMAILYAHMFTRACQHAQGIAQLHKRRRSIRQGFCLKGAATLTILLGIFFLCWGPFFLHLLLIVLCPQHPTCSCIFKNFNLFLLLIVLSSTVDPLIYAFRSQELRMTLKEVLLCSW

mMC5R = mMC5R (Mus musculus, UniProt P41149); assay: AlphaScreen cAMP agonist assay, HEK293 cells stably expressing mMC5R; conditions: for mMC5R percent maximal stimulatory response (compared to NDP-MSH): at 1 mM, not enough stimulation to determine EC50; for mMC5R partial agonist efficacy bin: sigmoidal curve, efficacy <90% of NDP-MSH
Sequence of mMC5R (P41149 whole entry): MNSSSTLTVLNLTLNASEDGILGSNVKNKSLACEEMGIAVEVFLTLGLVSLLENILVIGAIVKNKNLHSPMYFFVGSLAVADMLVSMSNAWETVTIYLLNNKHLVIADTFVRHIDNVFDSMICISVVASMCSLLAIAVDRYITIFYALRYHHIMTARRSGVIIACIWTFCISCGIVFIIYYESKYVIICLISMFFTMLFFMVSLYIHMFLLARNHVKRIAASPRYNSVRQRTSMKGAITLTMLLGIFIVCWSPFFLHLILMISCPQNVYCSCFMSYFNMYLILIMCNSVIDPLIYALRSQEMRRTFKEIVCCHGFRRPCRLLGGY

mMC4R [2] = biological target: T1, mMC4R; assay: cell-based
[3] = relative to NDP-MSH, full = >90% receptor activation

SMILES | mMC4R percent maximal stimulatory response (compared to NDP-MSH) (mMC4R [1]) [% @ 1 mM] | EC50 (mMC3R) [µM] | EC50 (mMC1R) [µM] | EC50 (mMC5R) [µM] | EC50 (mMC4R [1]) [µM] | mMC3R percent maximal stimulatory response (compared to NDP-MSH) (mMC3R) [% @ 1 mM] | mMC1R partial agonist efficacy bin (mMC1R) | mMC3R partial agonist efficacy bin (mMC3R) | other results
CC(C)[C@@H]1CNC(=N)N1C[C@@H]1CCCN1C[C@@H](CC1CCCCC1)N1CCN(CC2CCC(C(C)(C)C)CC2)C1=N (some centres unmarked) [Compound 2718.027] | 45 | 2.1 ± 0.2 | 0.34 ± 0.03 | 0.51 ± 0.07 | – | – | – | – | mMC3R agonist efficacy (in words) (mMC3R; [3]): full agonist efficacy; Kb (mMC4R [2]): 0.631 µM
CCC[C@@H]1CN([C@H](CC2CCCCC2)CN2CCC[C@H]2CN2C(=N)NC[C@H]2C(C)C)C(=N)N1CC [Compound 2718.014] | – | – | 9 ± 3 | – | > 1000 | 20 | B (B (51–90% receptor activation)) | – | mMC5R percent maximal stimulatory response (compared to NDP-MSH) (mMC5R): 50% @ 1 mM
CC(C)C[C@@H]1CNC(=N)N1C[C@@H]1CCCN1CCN1C[C@@H]([C@H](C)O)N(CC2CCC(C(C)(C)C)CC2)C1=N (some centres unmarked) [Compound 2718.023] | – | – | – | – | 40 | 30 | – | – | mMC4R partial agonist efficacy bin (mMC4R [1]): A (A (20–50% receptor activation)); mMC1R percent maximal stimulatory response (compared to NDP-MSH) (mMC1R): 85% @ 1 mM; mMC5R percent maximal stimulatory response (compared to NDP-MSH) (mMC5R): 80% @ 1 mM
CCN1C(=N)N([C@H](Cc2ccccc2)CN2CCC[C@H]2CN2C(=N)NC[C@H]2CC(C)C)C[C@H]1[C@H](C)O [Compound 2718.004] | – | > 1000 | 20.6 | > 1000 | > 1000 | – | A (A (20–50% receptor activation)) | – | –
CC(C)C[C@@H]1CNC(=N)N1C[C@@H]1CCCN1C[C@H](Cc1ccccc1)N1C[C@@H]([C@H](C)O)N(CC2CCC(C(C)(C)C)CC2)C1=N (some centres unmarked) [Compound 2718.031] | 55 | – | 2.3 ± 0.9 | – | – | 55 | – | – | fold decreased mMC1R agonist potency (mMC1R; relative to 2718.001): 7 fold; mMC5R percent maximal stimulatory response (compared to NDP-MSH) (mMC5R): 70% @ 1 mM
CC(C)C[C@H]1CNC(=N)N1C[C@@H]1CCCN1C[C@@H](Cc1ccccc1)N1C[C@@H]([C@H](C)O)N(CC2CCC(C(C)(C)C)CC2)C1=N (some centres unmarked) [Compound 2718.033] | 60 | 3.8 ± 0.6 | 0.38 ± 0.04 | 0.9 ± 0.3 | – | – | – | B (B (51–90% receptor activation)) | –
CCC[C@@H]1CN(CCN2CCC[C@H]2CN2C(=N)NC[C@H]2C(C)C)C(=N)N1CC1CCC(C(C)(C)C)CC1 (some centres unmarked) [Compound 2718.028] | 35 | – | 10 | 19 | – | 35 | B (B (51–90% receptor activation)) | – | mMC5R partial agonist efficacy bin (mMC5R): B (B (51–90% receptor activation))
CC(C)C[C@@H]1CNC(=N)N1C[C@H]1CCCN1C[C@H](Cc1ccccc1)N1C[C@@H]([C@H](C)O)N(CC2CCC(C(C)(C)C)CC2)C1=N (some centres unmarked) [Compound 2718.038] | – | 5.9 ± 0.9 | 0.6 ± 0.1 | 1.4 ± 0.3 | 1.6 ± 0.3 | – | – | B (B (51–90% receptor activation)) | mMC4R partial agonist efficacy bin (mMC4R [1]): B (B (51–90% receptor activation)); fold decreased mMC5R agonist potency (mMC5R; relative to 2718.001): 5 fold
CC(O)C1CNC(=N)N1CC1CCC(C(C)(C)C)CC1 (centres unmarked) [Compound 2718.020] | 55 | – | – | 140 | – | 70 | – | – | mMC1R percent maximal stimulatory response (compared to NDP-MSH) (mMC1R): 70% @ 1 mM; mMC5R agonist efficacy (in words) (mMC5R; [3]): fully activate
CC(C)C[C@H]1CNC(=N)N1C[C@H]1CCCN1C[C@@H](Cc1ccccc1)N1C[C@@H]([C@H](C)O)N(CC2CCC(C(C)(C)C)CC2)C1=N (some centres unmarked) [Compound 2718.040] | 60 | 3.7 ± 0.4 | 0.9 ± 0.3 | 0.5 ± 0.03 | – | – | – | B (B (51–90% receptor activation)) | –
CC(C)C[C@H]1CNC(=N)N1C[C@@H]1CCCN1C[C@@H](Cc1ccccc1)N1C[C@H]([C@@H](C)O)N(CC2CCC(C(C)(C)C)CC2)C1=N (some centres unmarked) [Compound 2718.037] | 55 | – | 0.9 ± 0.2 | 7 ± 1 | – | 50 | B (B (51–90% receptor activation)) | – | mMC5R partial agonist efficacy bin (mMC5R): B (B (51–90% receptor activation))

Further lines, with some results ahead:

mMC4R percent maximal stimulatory response (compared to NDP-MSH) (mMC4R [1]) [% @ 1 mM] | EC50 (mMC3R) [µM] | EC50 (mMC1R) [µM] | EC50 (mMC5R) [µM] | EC50 (mMC4R [1]) [µM] | mMC3R percent maximal stimulatory response (compared to NDP-MSH) (mMC3R) [% @ 1 mM] | mMC1R partial agonist efficacy bin (mMC1R) | mMC3R partial agonist efficacy bin (mMC3R) | SMILES | other results
– | 27 | 3.2 ± 0.5 | 4.2 ± 0.5 | 39 | – | – | B (B (51–90% receptor activation)) | CCC[C@H]1CN([C@H](CC2CCCCC2)CN2CCC[C@H]2CN2C(=N)NC[C@H]2C(C)C)C(=N)N1CC1CCC(C(C)(C)C)CC1 (some centres unmarked) [Compound 2718.050] | mMC4R partial agonist efficacy bin (mMC4R [1]): B (B (51–90% receptor activation)); fold decreased mMC1R agonist potency (mMC1R; relative to 2718.003): 5 fold
60 | – | 40 | 8 ± 1 | – | 60 | – | – | CC(C)C[C@@H]1CNC(=N)N1C[C@H]1CCCN1C[C@H](Cc1ccccc1)N1C[C@H]([C@@H](C)O)N(CC2CCC(C(C)(C)C)CC2)C1=N (some centres unmarked) [Compound 2718.041] | fold decreased mMC1R agonist potency (mMC1R; relative to 2718.001): 125 fold; mMC5R partial agonist efficacy bin (mMC5R): B (B (51–90% receptor activation))
60 | – | – | 3.5 ± 0.3 | – | 55 | – | – | CCC[C@H]1CN([C@@H](CC2CCCCC2)CN2CCC[C@@H]2CN2C(=N)NC[C@@H]2C(C)C)C(=N)N1CC1CCC(C(C)(C)C)CC1 (some centres unmarked) [Compound 2718.054] | mMC1R percent maximal stimulatory response (compared to NDP-MSH) (mMC1R): 65% @ 1 mM
55 | 9 ± 1 | 1.8 ± 0.2 | 5 ± 1 | – | – | – | B (B (51–90% receptor activation)) | CC(C)C[C@@H]1CNC(=N)N1C[C@@H]1CCCN1C[C@H](CC1CCCCC1)N1C[C@@H]([C@H](C)O)N(CC2CCC(C(C)(C)C)CC2)C1=N (some centres unmarked) [Compound 2718.046] | fold decreased mMC1R agonist potency (mMC1R; relative to 2718.002): 7 fold; fold decreased mMC5R agonist potency (mMC5R; relative to 2718.002): 17 fold
45 | 2.2 ± 0.2 | 2.2 ± 0.7 | 1.1 ± 0.3 | – | – | B (B (51–90% receptor activation)) | B (B (51–90% receptor activation)) | CCCCC(CN1CCCC1CN1C(=N)NCC1CC(C)C)N1CC(C(C)O)N(CC2CCC(C(C)(C)C)CC2)C1=N (centres unmarked) [Compound 2718.060] | fold decreased mMC5R agonist potency (mMC5R; relative to 2718.002): 4 fold
55 | – | 3.5 ± 0.2 | 8 ± 2 | – | 55 | B (B (51–90% receptor activation)) | – | CC(C)C[C@H]1CNC(=N)N1C[C@H]1CCCN1C[C@@H](Cc1ccccc1)N1C[C@H]([C@@H](C)O)N(CC2CCC(C(C)(C)C)CC2)C1=N (some centres unmarked) [Compound 2718.043] | mMC5R partial agonist efficacy bin (mMC5R): B (B (51–90% receptor activation))
– | – | – | – | > 1000 | 20 | – | – | CC(C)CC1CNC(=N)N1CC1CCCN1CC(C)N1CC(C(C)O)N(CC2CCC(C(C)(C)C)CC2)C1=N (centres unmarked) [Compound 2718.061] | mMC1R percent maximal stimulatory response (compared to NDP-MSH) (mMC1R): 65% @ 1 mM; mMC5R percent maximal stimulatory response (compared to NDP-MSH) (mMC5R): 65% @ 1 mM
